Test results from patent US20200207734A1, “HETEROCYCLIC COMPOUND AND USE THEREOF” (Takeda Pharmaceutical Company Limited, priority 2017, published 2020).

Target: T1, human orexin type 2 receptor (Homo sapiens, UniProt O43614)
T1 construct: human orexin type 2 receptor cDNA was inserted into pcDNA3.1(+) plasmid vector (Invitrogen); expressed in transfected cells
T1 sequence (O43614 1-444): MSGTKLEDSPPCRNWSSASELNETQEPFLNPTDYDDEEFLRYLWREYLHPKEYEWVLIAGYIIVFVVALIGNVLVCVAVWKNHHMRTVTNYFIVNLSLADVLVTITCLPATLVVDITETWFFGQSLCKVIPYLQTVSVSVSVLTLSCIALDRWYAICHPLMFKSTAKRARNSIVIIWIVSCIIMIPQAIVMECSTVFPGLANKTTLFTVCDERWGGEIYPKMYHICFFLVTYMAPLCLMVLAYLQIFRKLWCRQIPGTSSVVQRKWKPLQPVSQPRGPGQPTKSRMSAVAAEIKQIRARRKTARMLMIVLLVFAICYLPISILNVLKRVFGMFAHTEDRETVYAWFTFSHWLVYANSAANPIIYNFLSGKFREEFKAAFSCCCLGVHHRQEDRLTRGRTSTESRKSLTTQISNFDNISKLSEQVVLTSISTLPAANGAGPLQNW
Assay: Measurement of orexin type 2 receptor agonist activity (calcium fluorescence, CHO cells expressing hOX2R)
Type: cell-based
Settings: test compound 3 μM; CHO cells expressing human OX2 receptor; DMSO = 0%, orexin A (human) = 100%
From the text: To obtain a cell clone stably expressing human orexin type 2 receptor, human orexin type 2 receptor cDNA was inserted into pcDNA3.1(+) plasmid vector (Invitrogen), and a plasmid DNA for expression of human orexin type 2 receptor (pcDNA3.1(+)/hOX2R) was cloned. The plasmid DNA was introduced into CHO-dhfr cell by an electroporation method, and human orexin type 2 receptor expressing clone cells were obtained by limiting dilution method by using G418 drug resistance as a selection marker.
CHO cells forcibly expressing human OX2 receptor were seeded in each well of 384 well black transparent bottom plate (BD Falcon) at 7,500 cells/well, and cultured for one day in a 5% CO2 incubator at 37° C. After removal of the medium in the cell plate, assay buffer A containing a calcium indicator (HBSS (Thermo Fisher Scientific), 20 mM HEPES (Thermo Fisher Scientific), 0.1% BSA (Wako Pure Chemical Industries, Ltd. or Sigma-Aldrich), 2.5 μg/mL Fluo-4 AM (DOJINDO Chemical), 0.08% Pluronic F127 (DOJINDO Chemical), 1.25 mM probenecid (DOJINDO Chemical)) was added at 30 μL/well. The plate was stood for 30 min in a 5% CO2 incubator at 37° C., and further stood at room temperature for 30 min. A test compound prepared by diluting with assay buffer B (HBSS, 20 mM HEPES, 0.1% BSA) was added at 10 μL/well, and the fluorescence value was measured by FDSSμCELL (Hamamatsu Photonics K.K.) every one sec for 1 min, and thereafter every two sec for 1 min 40 sec. The activity (%) of the test compound was calculated assuming that variation in the fluorescence value when DMSO was added instead of the test compound was 0%, and variation in the fluorescence value when orexin A (human) (PEPTIDE INSTITUTE, INC.) was added at the final concentration of 10 nM was 100%.

SMILES | OX2R agonist activity (3 μM, %) [%]
O=C(C1CCC1)N1CC[C@H](NS(=O)(=O)CF)[C@@H]1Cc1csc(-c2ccccc2)n1 (relative stereo) [Example 269, N-(cis-1-(cyclobutylcarbonyl)-2-((2-phenyl-1,3-thiazol-4-yl)methyl)pyrrolidin-3-yl)-1-fluoromethanesulfonamide] | 111
CC(C)C(=O)N1CC[C@H](NS(C)(=O)=O)[C@@H]1Cc1cccc(-c2ccccc2)c1F (relative stereo) [Example 293, N-(cis-2-((2-fluorobiphenyl-3-yl)methyl)-1-isobutyrylpyrrolidin-3-yl)methanesulfonamide] | 102
CC(C)C(=O)N1CC[C@H](NS(C)(=O)=O)[C@@H]1Cc1cccc(-c2cccc(F)c2)c1F (relative stereo) [Example 294, N-(cis-2-((2,3′-difluorobiphenyl-3-yl)methyl)-1-isobutyrylpyrrolidin-3-yl)methanesulfonamide] | 104
CS(=O)(=O)N[C@H]1CCN(C(=O)C2CCC2)[C@H]1Cc1cc(F)cc(-c2ccccc2)c1 (relative stereo) [Example 299, N-(cis-1-(cyclobutylcarbonyl)-2-((5-fluorobiphenyl-3-yl)methyl)pyrrolidin-3-yl)methanesulfonamide] | 100
CS(=O)(=O)N[C@H]1CCN(C(=O)C2CCC2)[C@H]1Cc1cc(F)cc(-c2cccc(F)c2)c1 (relative stereo) [Example 300, N-(cis-1-(cyclobutylcarbonyl)-2-((3′,5-difluorobiphenyl-3-yl)methyl)pyrrolidin-3-yl)methanesulfonamide] | 99
CS(=O)(=O)N[C@H]1CCN(C(=O)C2CCC2)[C@H]1Cc1ccc(F)c(-c2ccccc2)c1 (relative stereo) [Example 303, N-(cis-1-(cyclobutylcarbonyl)-2-((6-fluorobiphenyl-3-yl)methyl)pyrrolidin-3-yl)methanesulfonamide] | 95
CS(=O)(=O)N[C@H]1CCN(C(=O)C2CCC2)[C@H]1Cc1ccc(F)c(-c2cccc(F)c2)c1 (relative stereo) [Example 304, N-(cis-1-(cyclobutylcarbonyl)-2-((3′,6-difluorobiphenyl-3-yl)methyl)pyrrolidin-3-yl)methanesulfonamide] | 94
CCS(=O)(=O)N[C@H]1CCN(C(=O)C2CCC2)[C@H]1Cc1csc(-c2cc(F)cc(F)c2)n1 (relative stereo) [Example 315, N-(cis-1-(cyclobutylcarbonyl)-2-((2-(3,5-difluorophenyl)-1,3-thiazol-4-yl)methyl)pyrrolidin-3-yl)ethanesulfonamide] | 105
CCS(=O)(=O)N[C@H]1CCN(C(=O)C2(C)CCC2)[C@H]1Cc1csc(-c2cc(F)cc(F)c2)n1 (relative stereo) [Example 316, N-(cis-2-((2-(3,5-difluorophenyl)-1,3-thiazol-4-yl)methyl)-1-((1-methylcyclobutyl)carbonyl)pyrrolidin-3-yl)ethanesulfonamide] | 104
CCS(=O)(=O)N[C@H]1CCN(C(=O)C2(O)CCC2)[C@H]1Cc1csc(-c2cc(F)cc(F)c2)n1 (relative stereo) [Example 317, N-(cis-2-((2-(3,5-difluorophenyl)-1,3-thiazol-4-yl)methyl)-1-((1-hydroxycyclobutyl)carbonyl)pyrrolidin-3-yl)ethanesulfonamide] | 103
CCS(=O)(=O)N[C@H]1CCN(C(=O)C23CC(C2)C3)[C@H]1Cc1csc(-c2cc(F)cc(F)c2)n1 (relative stereo) [Example 318, N-(cis-1-(bicyclo[1.1.1]pent-1-ylcarbonyl)-2-((2-(3,5-difluorophenyl)-1,3-thiazol-4-yl)methyl)pyrrolidin-3-yl)ethanesulfonamide] | 102
CS(=O)(=O)N[C@H]1CCN(C(=O)C2CCC2)[C@H]1Cc1csc(-c2ccccc2)n1 (relative stereo) [Example 319, N-(cis-1-(cyclobutylcarbonyl)-2-((2-phenyl-1,3-thiazol-4-yl)methyl)pyrrolidin-3-yl)methanesulfonamide] | 101
CC1(C(=O)N2CC[C@H](NS(C)(=O)=O)[C@@H]2Cc2csc(-c3cc(F)cc(F)c3)n2)CCC1 (relative stereo) [Example 322, N-(cis-2-((2-(3,5-difluorophenyl)-1,3-thiazol-4-yl)methyl)-1-((1-methylcyclobutyl)carbonyl)pyrrolidin-3-yl)methanesulfonamide] | 104
CS(=O)(=O)N[C@H]1CCN(C(=O)C2(O)CCC2)[C@H]1Cc1csc(-c2cc(F)cc(F)c2)n1 (relative stereo) [Example 323, N-(cis-2-((2-(3,5-difluorophenyl)-1,3-thiazol-4-yl)methyl)-1-((1-hydroxycyclobutyl)carbonyl)pyrrolidin-3-yl)methanesulfonamide] | 109
CS(=O)(=O)N[C@H]1CCN(C(=O)N2CCC2)[C@H]1Cc1cccc(-c2cccc(F)c2)n1 (relative stereo) [Example 333, N-(cis-1-(azetidin-1-ylcarbonyl)-2-((6-(3-fluorophenyl)pyridin-2-yl)methyl)pyrrolidin-3-yl)methanesulfonamide] | 101
CS(=O)(=O)N[C@H]1CCN(C(=O)C2(O)CCC2)[C@H]1Cc1cccc(-c2cccc(F)c2)n1 (relative stereo) [Example 338, N-(cis-2-((6-(3-fluorophenyl)pyridin-2-yl)methyl)-1-((1-hydroxycyclobutyl)carbonyl)pyrrolidin-3-yl)methanesulfonamide] | 103
CC(C)OC(=O)N1CCCC(NS(C)(=O)=O)C1Cc1cccc(-c2ccccc2)n1 (stereo not drawn) [Example 76, Optically Active isopropyl cis-3-((methylsulfonyl)amino)-2-((6-phenylpyridin-2-yl)methyl)piperidine-1-carboxylate] | 106
CCOC(=O)N1CC[C@H](NS(C)(=O)=O)[C@@H]1Cc1cccc(-c2ccccc2)c1 [Example 101, ethyl (2S,3S)-2-(biphenyl-3-ylmethyl)-3-((methylsulfonyl)amino)pyrrolidine-1-carboxylate] | 96
CC(C)OC(=O)N1CCCC(NS(C)(=O)=O)C1Cc1csc(-c2ccccc2)n1 (stereo not drawn) [Example 210, Optically Active isopropyl cis-3-((methylsulfonyl)amino)-2-((2-phenyl-1,3-thiazol-4-yl)methyl)piperidine-1-carboxylate] | 102
CS(=O)(=O)N[C@H]1CCN(C(=O)C2CCC2)[C@H]1Cc1cccc(-c2ccccc2)c1 [Example 261, N-((2S,3S)-2-(biphenyl-3-ylmethyl)-1-(cyclobutylcarbonyl)pyrrolidin-3-yl)methanesulfonamide] | 97
CS(=O)(=O)N[C@H]1CCN(C(=O)C2CCC2)[C@H]1Cc1cccc(-c2cccc(F)c2)c1 [Example 262, N-((2S,3S)-1-(cyclobutylcarbonyl)-2-((3′-fluorobiphenyl-3-yl)methyl)pyrrolidin-3-yl)methanesulfonamide] | 101
CS(=O)(=O)N[C@H]1CCN(C(=O)C2(F)CCC2)[C@H]1Cc1cccc(-c2cccc(F)c2)c1 [Example 266, N-((2S,3S)-2-((3′-fluorobiphenyl-3-yl)methyl)-1-((1-fluorocyclobutyl)carbonyl)pyrrolidin-3-yl)methanesulfonamide] | 107
CC1(C(=O)N2CC[C@H](NS(C)(=O)=O)[C@@H]2Cc2cccc(-c3cccc(F)c3)c2)CCC1 [Example 305, N-((2S,3S)-2-((3′-fluorobiphenyl-3-yl)methyl)-1-((1-methylcyclobutyl)carbonyl)pyrrolidin-3-yl)methanesulfonamide] | 105
